This passage reports IC50 results from patent publication US20230257364A1, “PYRIDAZINONE-BASED COMPOUNDS AS AXL, C-MET, AND MER INHIBITORS AND METHODS OF USE THEREOF” (CMG Pharmaceutical Co., Ltd., priority 2022, published 2023).

Each structure is given as a SMILES string.

The IC50 is the point on the concentration scale where inhibition reaches its midpoint.

What all share (format): biochemical
For test [1], the target named is C-MET (Homo sapiens, UniProt P08581). Kind of test: Enzymatic kinase assay (ADP-GLO), C-MET. To be noted: 10 μM ATP, poly (Glu4, Tyr1) substrate, 60 min room temperature, luminescence; read-out: Enzymatic assay IC50 (nM) C-MET. The method, then:
(§1) This example illustrates an enzymatic assay to determine the inhibitory activity of exemplary compounds of Formula (I) in an aspect of the invention.
All the kinase reactions were performed in 5 μL using tyrosine kinase buffer with 0.2 μg/μL poly (Glu4, Tyr1) substrate, 10 μM ATP, serial dilution of the inhibitor, and incubated at room temperature for 60 min. After the indicated incubation times, 5 μL ADP-GLO™ reagent (Promega, Madison, Wis.) was added to the reactions and the plate was incubated at room temperature for 40 min. […] All 384-well assay plates were read using a GLOMAX™ Discover Microplate Luminometer from Promega (Madison, Wis.). To plot, analyze the data and calculate all kinase reaction biochemical values, both Microsoft Excel and Prism from GraphPad 7 Software (La Jolla, Calif.) were used.
A general note: In ADP-Glo the light output rises with the ADP produced.

The target in test [2] is T1, MER (Homo sapiens, UniProt Q12866).
T1 sequence (Q12866 21-999): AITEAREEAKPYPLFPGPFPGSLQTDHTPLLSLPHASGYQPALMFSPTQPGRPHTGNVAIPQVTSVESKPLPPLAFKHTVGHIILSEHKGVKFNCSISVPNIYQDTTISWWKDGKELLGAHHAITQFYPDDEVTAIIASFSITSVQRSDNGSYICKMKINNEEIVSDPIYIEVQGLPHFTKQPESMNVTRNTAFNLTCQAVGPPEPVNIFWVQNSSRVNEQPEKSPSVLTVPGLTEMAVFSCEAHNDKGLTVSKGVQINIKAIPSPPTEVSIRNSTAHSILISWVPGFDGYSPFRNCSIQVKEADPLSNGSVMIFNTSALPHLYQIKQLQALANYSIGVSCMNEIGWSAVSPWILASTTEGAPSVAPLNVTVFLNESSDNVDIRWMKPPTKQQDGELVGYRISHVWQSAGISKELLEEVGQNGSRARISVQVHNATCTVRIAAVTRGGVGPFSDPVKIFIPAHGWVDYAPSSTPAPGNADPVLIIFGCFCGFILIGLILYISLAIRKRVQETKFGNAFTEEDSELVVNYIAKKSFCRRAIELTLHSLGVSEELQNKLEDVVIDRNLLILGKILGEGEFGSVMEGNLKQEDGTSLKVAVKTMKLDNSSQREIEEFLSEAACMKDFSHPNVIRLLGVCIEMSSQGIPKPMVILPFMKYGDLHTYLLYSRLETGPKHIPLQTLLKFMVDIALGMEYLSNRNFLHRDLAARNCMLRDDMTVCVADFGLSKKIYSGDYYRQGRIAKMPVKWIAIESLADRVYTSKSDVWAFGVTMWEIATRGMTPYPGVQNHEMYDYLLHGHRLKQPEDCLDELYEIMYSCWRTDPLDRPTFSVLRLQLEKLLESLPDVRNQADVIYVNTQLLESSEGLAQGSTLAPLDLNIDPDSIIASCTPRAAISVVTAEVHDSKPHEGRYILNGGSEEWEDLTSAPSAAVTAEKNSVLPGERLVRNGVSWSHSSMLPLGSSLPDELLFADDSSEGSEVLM
Kind of test: Enzymatic kinase assay (ADP-GLO), MER. Conditions: 10 μM ATP, poly (Glu4, Tyr1) substrate, 60 min room temperature, luminescence. The protocol: as §1
(§2) All the kinase reactions were performed in 5 μL using tyrosine kinase buffer with 0.2 μg/μL poly (Glu4, Tyr1) substrate, 10 μM ATP, serial dilution of the inhibitor, and incubated at room temperature for 60 min. After the indicated incubation times, 5 μL ADP-GLO™ reagent (Promega, Madison, Wis.) was added to the reactions and the plate was incubated at room temperature for 40 min. Then, 10 μL of kinase detection reagent was added and after an incubation time of 40 min, luminescence was recorded and IC50 values were determined (Table 1). All 384-well assay plates were read using a GLOMAX™ Discover Microplate Luminometer from Promega (Madison, Wis.). To plot, analyze the data and calculate all kinase reaction biochemical values, both Microsoft Excel and Prism from GraphPad 7 Software (La Jolla, Calif.) were used.

The target in test [3] is T2, AXL (Homo sapiens, UniProt P30530).
T2 sequence (P30530 26-894): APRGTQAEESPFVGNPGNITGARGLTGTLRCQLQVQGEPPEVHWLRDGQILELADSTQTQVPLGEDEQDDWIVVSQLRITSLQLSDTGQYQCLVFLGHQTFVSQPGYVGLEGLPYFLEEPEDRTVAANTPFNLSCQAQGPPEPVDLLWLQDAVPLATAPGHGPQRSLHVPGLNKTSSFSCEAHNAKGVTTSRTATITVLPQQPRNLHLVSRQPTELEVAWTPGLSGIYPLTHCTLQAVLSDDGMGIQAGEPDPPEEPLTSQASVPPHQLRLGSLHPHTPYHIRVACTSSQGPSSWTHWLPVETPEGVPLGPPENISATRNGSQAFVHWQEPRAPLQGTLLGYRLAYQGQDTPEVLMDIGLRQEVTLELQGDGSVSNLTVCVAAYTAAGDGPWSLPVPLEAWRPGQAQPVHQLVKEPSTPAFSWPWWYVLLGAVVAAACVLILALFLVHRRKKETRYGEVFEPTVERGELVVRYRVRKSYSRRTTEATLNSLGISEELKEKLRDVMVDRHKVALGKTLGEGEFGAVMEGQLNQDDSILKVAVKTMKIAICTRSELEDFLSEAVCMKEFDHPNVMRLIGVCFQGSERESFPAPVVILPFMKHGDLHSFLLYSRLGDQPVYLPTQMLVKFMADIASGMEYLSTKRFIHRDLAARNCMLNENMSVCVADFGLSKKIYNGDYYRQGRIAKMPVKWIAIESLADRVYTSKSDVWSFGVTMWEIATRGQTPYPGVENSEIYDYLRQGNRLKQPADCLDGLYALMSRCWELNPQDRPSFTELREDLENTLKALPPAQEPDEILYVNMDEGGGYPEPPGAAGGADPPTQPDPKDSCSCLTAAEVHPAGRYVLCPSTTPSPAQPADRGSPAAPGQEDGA
Kind of test: Enzymatic kinase assay (ADP-GLO), AXL. To be noted: 10 μM ATP, poly (Glu4, Tyr1) substrate, 60 min room temperature, luminescence. The method, then: as §1, §2

Sequence of C-MET (P08581 25-1390): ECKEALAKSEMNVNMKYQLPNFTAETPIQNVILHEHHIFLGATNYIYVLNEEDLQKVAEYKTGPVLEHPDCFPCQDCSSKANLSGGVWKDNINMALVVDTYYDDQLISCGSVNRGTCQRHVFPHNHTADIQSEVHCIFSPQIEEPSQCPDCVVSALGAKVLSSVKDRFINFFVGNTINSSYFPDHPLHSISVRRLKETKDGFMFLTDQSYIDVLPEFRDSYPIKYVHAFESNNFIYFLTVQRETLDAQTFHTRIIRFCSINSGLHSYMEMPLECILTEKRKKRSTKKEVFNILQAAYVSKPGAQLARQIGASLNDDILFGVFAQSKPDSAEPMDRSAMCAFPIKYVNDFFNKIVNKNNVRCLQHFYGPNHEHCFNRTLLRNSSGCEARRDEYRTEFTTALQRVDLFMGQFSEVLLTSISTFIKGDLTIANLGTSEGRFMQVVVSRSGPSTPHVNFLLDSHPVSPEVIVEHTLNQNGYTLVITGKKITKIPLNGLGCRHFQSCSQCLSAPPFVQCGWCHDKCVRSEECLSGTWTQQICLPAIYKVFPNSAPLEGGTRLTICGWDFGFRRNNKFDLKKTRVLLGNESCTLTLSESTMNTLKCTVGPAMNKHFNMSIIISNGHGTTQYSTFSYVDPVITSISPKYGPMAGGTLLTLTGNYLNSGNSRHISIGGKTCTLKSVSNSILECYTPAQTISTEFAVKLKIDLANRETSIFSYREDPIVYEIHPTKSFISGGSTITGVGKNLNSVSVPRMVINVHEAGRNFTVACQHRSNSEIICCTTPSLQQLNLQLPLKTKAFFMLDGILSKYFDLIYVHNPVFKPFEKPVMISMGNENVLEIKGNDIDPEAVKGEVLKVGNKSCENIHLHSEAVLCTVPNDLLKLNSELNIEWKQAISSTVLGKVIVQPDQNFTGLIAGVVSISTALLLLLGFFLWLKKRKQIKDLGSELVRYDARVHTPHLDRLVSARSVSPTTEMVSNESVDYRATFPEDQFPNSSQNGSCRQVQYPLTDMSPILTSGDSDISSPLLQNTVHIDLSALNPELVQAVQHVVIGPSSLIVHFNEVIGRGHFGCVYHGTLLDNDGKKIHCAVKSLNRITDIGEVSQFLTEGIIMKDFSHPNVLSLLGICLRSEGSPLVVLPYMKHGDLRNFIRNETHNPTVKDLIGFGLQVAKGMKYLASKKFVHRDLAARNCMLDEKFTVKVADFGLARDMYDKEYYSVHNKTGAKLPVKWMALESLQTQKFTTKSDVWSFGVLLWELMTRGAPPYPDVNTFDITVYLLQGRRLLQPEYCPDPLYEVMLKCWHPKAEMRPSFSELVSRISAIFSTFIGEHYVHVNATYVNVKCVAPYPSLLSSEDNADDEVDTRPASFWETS

For the compound `COCCN1CCN(C(C)(C)C#Cc2c(Oc3ccc(NC(=O)c4ccnn(-c5ccc(F)cc5)c4=O)cc3F)ccnc2N)CC1` [Example 23, N-(4-(2-amino-3-(3-(4-(2-methoxyethyl)piperazin-1-yl)-3-methylbut-1-ynyl)pyridine-4-yloxy)-3-fluorophenyl)-2-(4-fluorophenyl)-3-oxo-2,3-dihydropyridazine-4-carboxamide], the results for the IC50 in test [1], in test [2] and in test [3] were under 100 nM, under 100 nM and under 10 nM, respectively.
As to `COCCONC(=O)C#Cc1c(Oc2ccc(NC(=O)c3ccnn(-c4ccc(F)cc4)c3=O)cc2F)ccnc1N` [Example 11, N-(4-(2-amino-3-(3-(2-methoxyethoxyamino)-3-oxoprop-1-ynyl)pyridin-4-yloxy)-3-fluorophenyl)-2-(4-fluorophenyl)-3-oxo-2,3-dihydropyridazine-4-carboxamide], the values for the half-inhibitory concentration (IC50) in test [1], in test [2] and in test [3] were under 10 nM, under 1000 nM and under 100 nM, respectively.
In the same order, the values of `CN1CCC(C#Cc2c(Oc3ccc(NC(=O)c4ccnn(-c5ccc(F)cc5)c4=O)cc3F)ccnc2N)CC1` [Example 26, N-(4-(2-amino-3-((1-methylpiperidin-4-yl)ethynyl)pyridin-4-yloxy)-3-fluorophenyl)-2-(4-fluorophenyl)-3-oxo-2,3-dihydropyridazine-4-carboxamide] are under 10 nM, over 1000 nM and under 10 nM.
Turning to `Nc1nccc(Oc2ccc(NC(=O)c3ccnn(-c4ccc(F)cc4)c3=O)cc2F)c1C#CC(=O)N1CCOCC1` [Example 2, N-(4-(2-amino-3-(3-morpholino-3-oxoprop-1-ynyl)pyridin-4-yloxy)-3-fluorophenyl)-2-(4-fluorophenyl)-3-oxo-2,3-dihydropyridazine-4-carboxamide], the results for the IC50 in test [1], in test [2] and in test [3] were under 1000 nM, under 10 nM and under 100 nM, respectively.
`Nc1nccc(Oc2ccc(NC(=O)c3cccn(-c4ccc(F)cc4)c3=O)cc2F)c1C#CC(=O)N1CCNCC1` [Example 15, N-(4-(2-amino-3-(3-oxo-3-(piperazin-1-yl)prop-1-ynyl)pyridin-4-yloxy)-3-fluorophenyl)-1-(4-fluorophenyl)-2-oxo-1,2-dihydropyridine-3-carboxamide]: the IC50 in test [1], in test [2] and in test [3] was under 100 nM in each case.
On to `COCCN1CCC(C#Cc2c(Oc3ccc(NC(=O)c4ccnn(-c5ccc(F)cc5)c4=O)cc3F)ccnc2N)CC1` [Example 27, N-(4-(2-amino-3-((1-(2-methoxyethyl)piperidin-4-yl)ethynyl)pyridin-4-yloxy)-3-fluorophenyl)-2-(4-fluorophenyl)-3-oxo-2,3-dihydropyridazine-4-carboxamide], for which the IC50 in test [1], in test [2] and in test [3] was under 10 nM in each case.
Turning to `COCCN1CCN(C(=O)C#Cc2c(Oc3ccc(NC(=O)c4ccnn(-c5ccc(F)cc5)c4=O)cc3F)ccnc2N)CC1` [Example 14, N-(4-(2-amino-3-(3-(4-(2-methoxyethyl)piperazin-1-yl)-3-oxoprop-1-ynyl)pyridin-4-yloxy)-3-fluorophenyl)-2-(4-fluorophenyl)-3-oxo-2,3-dihydropyridazine-4-carboxamide], the IC50 in test [1], in test [2] and in test [3] was under 10 nM each time.
On to `COCCON(C)C(=O)C#Cc1c(Oc2ccc(NC(=O)c3ccnn(-c4ccc(F)cc4)c3=O)cc2F)ccnc1N` [Example 12, N-(4-(2-amino-3-(3-((2-methoxyethoxy)(methyl)amino)-3-oxoprop-1-ynyl)pyridin-4-yloxy)-3-fluorophenyl)-2-(4-fluorophenyl)-3-oxo-2,3-dihydropyridazine-4-carboxamide], for which the half-inhibitory concentration (IC50) in test [1], in test [2] and in test [3] was under 100 nM each time.
Take `CN1CCN(CC#Cc2c(Oc3ccc(NC(=O)c4ccnn(-c5ccc(F)cc5)c4=O)cc3F)ccnc2N)CC1` [Example 29, N-(4-(2-amino-3-(3-(4-methylpiperazin-1-yl)prop-1-ynyl)pyridin-4-yloxy)-3-fluorophenyl)-2-(4-fluorophenyl)-3-oxo-2,3-dihydropyridazine-4-carboxamide]: the IC50 in test [1], in test [2] and in test [3] was under 10 nM in each case.
For the compound `Nc1nccc(Oc2ccc(NC(=O)c3ccnn(-c4ccc(F)cc4)c3=O)cc2F)c1Cl` [Example 1, N-(4-(2-amino-3-chloropyridin-4-yloxy)-3-fluorophenyl)-2-(4-fluorophenyl)-3-oxo-2,3-dihydropyridazine-4-carboxamide], the IC50 in test [1], in test [2] and in test [3] was under 1000 nM in each case.
For `COCCN1CCN(CC#Cc2c(Oc3ccc(NC(=O)c4ccnn(-c5ccc(F)cc5)c4=O)cc3F)ccnc2N)CC1` [Example 24], the IC50 in test [1] was under 100 nM; in test [2] it was under 10 nM; in test [3], under 10 nM.
As for `CC(C)N1CCC(CC#Cc2c(Oc3ccc(NC(=O)c4ccnn(-c5ccc(F)cc5)c4=O)cc3F)ccnc2N)CC1` [Example 32, N-(4-(2-amino-3-(3-(1-isopropylpiperidin-4-yl)prop-1-ynyl)pyridin-4-yloxy)-3-fluorophenyl)-2-(4-fluorophenyl)-3-oxo-2,3-dihydropyridazine-4-carboxamide], the IC50 in test [1], in test [2] and in test [3] was under 100 nM each time.
For the compound `Nc1nccc(Oc2ccc(NC(=O)c3ccnn(-c4ccc(F)cc4)c3=O)cc2F)c1/C=C/C(=O)N1CCOCC1` [Example 4, (E)-N-(4-(2-amino-3-(3-morpholino-3-oxoprop-1-enyl)pyridine-4-yloxy)-3-fluorophenyl)-2-(4-fluorophenyl)-3-oxo-2,3-dihydropyridazine-4-carboxamide], the IC50 in test [1] was under 100 nM; in test [2] it was under 100 nM; in test [3], under 1000 nM.
